In article PMC5218480 (PLoS ONE, 2017):

Tested on: MV-4-11 cells
Assay: Gene expression microarray analysis (Affymetrix PrimeView) and GSEA
Type: cell-based, human
Design: RFU PODN (11730768_x_at) / Fold change /veh PODN (11730768_x_at) / RFU LINC00158 (11744669_a_at) / Fold change /veh LINC00158 (11744669_a_at) / RFU DUSP10 (11751237_a_at) / Fold change /veh DUSP10 (11751237_a_at) / RFU ID3 (11757404_x_at) / Fold change /veh ID3 (11757404_x_at) / RFU PLEKHG5 (11737974_s_at) / Fold change /veh PLEKHG5 (11737974_s_at) / RFU LRRC4B (11730491_at) / Fold change /veh LRRC4B (11730491_at) / RFU GIMAP4 (11747438_a_at) / Fold change /veh GIMAP4 (11747438_a_at) / RFU KRT8 (11758183_x_at) / Fold change /veh KRT8 (11758183_x_at) / RFU CNN1 (11734310_a_at) / Fold change /veh CNN1 (11734310_a_at) / RFU VPS37D (11726825_at) / Fold change /veh VPS37D (11726825_at) / RFU C10orf10 (11716522_x_at) / Fold change /veh C10orf10 (11716522_x_at) / RFU KIR2DL2 /// KIR2DL4 /// KIR2DL5A /// KIR2DL5B /// KIR2DS1 /// KIR2DS2 /// KIR2DS3 /// KIR2DS4 /// KIR3DL3 /// KIR3DL3 /// KIR3DS1 (11738374_at) / Fold change /veh KIR2DL2 /// KIR2DL4 /// KIR2DL5A /// KIR2DL5B /// KIR2DS1 /// KIR2DS2 /// KIR2DS3 /// KIR2DS4 /// KIR3DL3 /// KIR3DL3 /// KIR3DS1 (11738374_at) / RFU C1QL1 (11718748_at) / Fold change /veh C1QL1 (11718748_at) / RFU TMPRSS4 (11747572_a_at) / Fold change /veh TMPRSS4 (11747572_a_at) / RFU HAMP (11756126_x_at) / Fold change /veh HAMP (11756126_x_at) / RFU RNFT2 (11725882_a_at) / Fold change /veh RNFT2 (11725882_a_at) / RFU NR4A2 (11747474_a_at) / Fold change /veh NR4A2 (11747474_a_at) / RFU ABCC12 (11746883_a_at) / Fold change /veh ABCC12 (11746883_a_at) / RFU TMEM136 (11760407_x_at) / Fold change /veh TMEM136 (11760407_x_at) / RFU CLDN22 /// WWC2 (11732394_at) / Fold change /veh CLDN22 /// WWC2 (11732394_at) / RFU HLA-DPB1 (11760878_x_at) / Fold change /veh HLA-DPB1 (11760878_x_at) / RFU SPINT1 (11716480_a_at) / Fold change /veh SPINT1 (11716480_a_at) / RFU GAP43 (11754022_s_at) / Fold change /veh GAP43 (11754022_s_at) / RFU A4GNT (11735810_at) / Fold change /veh A4GNT (11735810_at) / RFU PRB3 (11715151_x_at) / Fold change /veh PRB3 (11715151_x_at) / RFU TUBB4B (11761932_at) / Fold change /veh TUBB4B (11761932_at) / RFU CAPN14 (11732068_a_at) / Fold change /veh CAPN14 (11732068_a_at) / RFU TMCC2 (11721928_a_at) / Fold change /veh TMCC2 (11721928_a_at) / RFU IRGQ (11745062_a_at) / Fold change /veh IRGQ (11745062_a_at) / RFU FAM174B (11720279_a_at) / Fold change /veh FAM174B (11720279_a_at) / RFU TMPRSS4 (11748680_a_at) / Fold change /veh TMPRSS4 (11748680_a_at) / RFU FAM212B (11763350_a_at) / Fold change /veh FAM212B (11763350_a_at) / RFU PLEKHG5 (11743358_a_at) / Fold change /veh PLEKHG5 (11743358_a_at) / RFU ZSCAN30 (11745921_a_at) / Fold change /veh ZSCAN30 (11745921_a_at) / RFU CMKLR1 (11741424_a_at) / Fold change /veh CMKLR1 (11741424_a_at) / RFU LOC101060620 /// MAPK8IP1 (11723275_at) / Fold change /veh LOC101060620 /// MAPK8IP1 (11723275_at) / RFU SPTSSB (11747773_x_at) / Fold change /veh SPTSSB (11747773_x_at) / RFU PRSS12 (11739890_at) / Fold change /veh PRSS12 (11739890_at) / RFU BIN1 (11741810_x_at) / Fold change /veh BIN1 (11741810_x_at) / RFU WNT11 (11732464_a_at) / Fold change /veh WNT11 (11732464_a_at) / RFU C10orf10 (11716521_a_at) / Fold change /veh C10orf10 (11716521_a_at) / RFU C5orf56 (11738089_at) / Fold change /veh C5orf56 (11738089_at) / RFU CYB561 (11721691_x_at) / Fold change /veh CYB561 (11721691_x_at) / RFU ANKRD19P (11752326_a_at) / Fold change /veh ANKRD19P (11752326_a_at) / RFU OR2T12 /// OR2T33 /// OR2T8 (11738714_s_at) / Fold change /veh OR2T12 /// OR2T33 /// OR2T8 (11738714_s_at) / RFU VCAN (11748164_a_at) / Fold change /veh VCAN (11748164_a_at) / RFU JSRP1 (11732532_at) / Fold change /veh JSRP1 (11732532_at) / RFU KRTAP10-11 (11738290_x_at) / Fold change /veh KRTAP10-11 (11738290_x_at) / RFU MYO3A (11730013_a_at) / Fold change /veh MYO3A (11730013_a_at) / RFU EBF3 (11725865_a_at) / Fold change /veh EBF3 (11725865_a_at) / RFU CAMK2N1 (11719241_x_at) / Fold change /veh CAMK2N1 (11719241_x_at) / RFU C5orf56 (11738088_a_at) / Fold change /veh C5orf56 (11738088_a_at) / RFU OLFML3 (11715873_a_at) / Fold change /veh OLFML3 (11715873_a_at) / RFU LOC100653217 /// NTM (11731650_a_at) / Fold change /veh LOC100653217 /// NTM (11731650_a_at) / RFU MAPK11 (11762145_a_at) / Fold change /veh MAPK11 (11762145_a_at) / RFU FIZ1 (11724087_x_at) / Fold change /veh FIZ1 (11724087_x_at) / RFU OASL (11726364_x_at) / Fold change /veh OASL (11726364_x_at) / RFU SOX15 (11748057_x_at) / Fold change /veh SOX15 (11748057_x_at) / RFU CD79A (11719716_a_at) / Fold change /veh CD79A (11719716_a_at) / RFU HIST1H1D (11736915_at) / Fold change /veh HIST1H1D (11736915_at) / RFU CASKIN2 (11723855_a_at) / Fold change /veh CASKIN2 (11723855_a_at) / RFU LOC730098 (11760151_x_at) / Fold change /veh LOC730098 (11760151_x_at) / RFU OR4N2 (11742367_at) / Fold change /veh OR4N2 (11742367_at) / RFU PRRT2 (11749266_a_at) / Fold change /veh PRRT2 (11749266_a_at) / RFU SNX32 (11753110_a_at) / Fold change /veh SNX32 (11753110_a_at) / RFU CDHR5 (11726645_a_at) / Fold change /veh CDHR5 (11726645_a_at) / RFU RCAN1 (11760418_a_at) / Fold change /veh RCAN1 (11760418_a_at) / RFU FAM167A (11723789_a_at) / Fold change /veh FAM167A (11723789_a_at) / RFU FAM26E (11764081_at) / Fold change /veh FAM26E (11764081_at) / RFU ISYNA1 (11749810_s_at) / Fold change /veh ISYNA1 (11749810_s_at) / RFU ACY1 (11761880_at) / Fold change /veh ACY1 (11761880_at) / RFU 11764098_at / Fold change /veh 11764098_at / RFU SAMD14 (11745864_x_at) / Fold change /veh SAMD14 (11745864_x_at) / RFU NPB (11741838_a_at) / Fold change /veh NPB (11741838_a_at) / RFU TMPRSS6 (11731388_a_at) / Fold change /veh TMPRSS6 (11731388_a_at) / RFU KRTAP10-2 (11738614_at) / Fold change /veh KRTAP10-2 (11738614_at) / RFU ARHGAP8 /// PRR5-ARHGAP8 (11727945_x_at) / Fold change /veh ARHGAP8 /// PRR5-ARHGAP8 (11727945_x_at) / RFU KRTAP5-7 /// NADSYN1 (11734609_at) / Fold change /veh KRTAP5-7 /// NADSYN1 (11734609_at) / RFU RASL12 (11751679_a_at) / Fold change /veh RASL12 (11751679_a_at) / RFU CDKN2B (11736163_a_at) / Fold change /veh CDKN2B (11736163_a_at) / RFU PRF1 (11729649_at) / Fold change /veh PRF1 (11729649_at) / RFU, ZNF638 /// ZNF638-IT1 / Fold change vs veh, ZNF638 /// ZNF638-IT1 / RFU, PANK3 / Fold change vs veh, PANK3 / RFU, SH3YL1 / Fold change vs veh, SH3YL1 / RFU, ZEB2 / Fold change vs veh, ZEB2 / RFU, NRIP1 / Fold change vs veh, NRIP1 / RFU, PTTG1IP / Fold change vs veh, PTTG1IP / RFU, CAPN2 / Fold change vs veh, CAPN2 / RFU, MED14 / Fold change vs veh, MED14 / RFU, SNORA58 / Fold change vs veh, SNORA58 / RFU, C1orf63 / Fold change vs veh, C1orf63 / RFU, LRRFIP1 / Fold change vs veh, LRRFIP1 / RFU, NDUFAF7 / Fold change vs veh, NDUFAF7 / RFU, SLC12A2 / Fold change vs veh, SLC12A2 / RFU, IBTK / Fold change vs veh, IBTK / RFU, ESF1 / Fold change vs veh, ESF1 / Fold change vs veh, TMEM50B / RFU, TAOK1 / Fold change vs veh, TAOK1 / RFU, ACBD3 / Fold change vs veh, ACBD3 / RFU, TMA16 / Fold change vs veh, TMA16 / RFU, RWDD3 / Fold change vs veh, RWDD3 / RFU, BCAT1 / Fold change vs veh, BCAT1 / RFU, EDEM3 / Fold change vs veh, EDEM3 / RFU, TMEM33 / Fold change vs veh, TMEM33 / RFU, WDR75 / Fold change vs veh, WDR75 / RFU, AHCTF1 / Fold change vs veh, AHCTF1 / RFU, TFRC / Fold change vs veh, TFRC / RFU, ZDHHC17 / Fold change vs veh, ZDHHC17 / RFU, NOM1 / Fold change vs veh, NOM1 / RFU, ARL8B / Fold change vs veh, ARL8B / RFU, ZBTB11 / Fold change vs veh, ZBTB11 / RFU, TAMM41 / Fold change vs veh, TAMM41 / RFU, KIAA1704 /// LOC100996395 / Fold change vs veh, KIAA1704 /// LOC100996395 / RFU, ING1 / Fold change vs veh, ING1 / RFU, TRMT61B / Fold change vs veh, TRMT61B / RFU, FUBP3 / Fold change vs veh, FUBP3 / RFU, TP53 / Fold change vs veh, TP53 / RFU, TNKS2 / Fold change vs veh, TNKS2 / RFU, ZFP14 / Fold change vs veh, ZFP14 / RFU, ACTR2 / Fold change vs veh, ACTR2 / RFU, PPP3R1 / Fold change vs veh, PPP3R1 / RFU, PIK3R1 / Fold change vs veh, PIK3R1 / RFU, HNRNPA1 / Fold change vs veh, HNRNPA1 / RFU, RNF170 / Fold change vs veh, RNF170 / RFU, ZNF28 / Fold change vs veh, ZNF28 / RFU, RNGTT / Fold change vs veh, RNGTT / RFU, OGT / Fold change vs veh, OGT / RFU, BRD1 / Fold change vs veh, BRD1 / RFU, MARS / Fold change vs veh, MARS / RFU, ZNF655 / Fold change vs veh, ZNF655 / RFU, FAHD1 / Fold change vs veh, FAHD1 / RFU, BDP1 / Fold change vs veh, BDP1 / RFU, LRRCC1 / Fold change vs veh, LRRCC1 / RFU, ARID1A / Fold change vs veh, ARID1A / RFU, ZNF146 / Fold change vs veh, ZNF146 / RFU, ZNF330 / Fold change vs veh, ZNF330 / RFU, GPN3 / Fold change vs veh, GPN3 / RFU, C9orf123 / Fold change vs veh, C9orf123 / RFU, N4BP2L2 / Fold change vs veh, N4BP2L2 / RFU, ARFIP1 / Fold change vs veh, ARFIP1 / RFU, FAM179B / Fold change vs veh, FAM179B / RFU, BCL10 / Fold change vs veh, BCL10 / RFU, UHRF1BP1L / Fold change vs veh, UHRF1BP1L / RFU, BET1 / Fold change vs veh, BET1 / RFU, CNOT2 / Fold change vs veh, CNOT2 / RFU, ZNF268 / Fold change vs veh, ZNF268 / Fold change vs veh, ZNF507 / RFU, DGCR2 / Fold change vs veh, DGCR2 / RFU, WDSUB1 / Fold change vs veh, WDSUB1 / Fold change vs veh, HSP90B1 /// MIR3652 / RFU, ADSS / Fold change vs veh, ADSS / RFU, GK / Fold change vs veh, GK / RFU, ZNF148 / Fold change vs veh, ZNF148 / RFU, TAF9 / Fold change vs veh, TAF9 / RFU, SLC1A5 / Fold change vs veh, SLC1A5 / RFU, SLMO2 / Fold change vs veh, SLMO2 / RFU, ABCC4 / Fold change vs veh, ABCC4 / RFU, LOC101060439 /// RAP1B / Fold change vs veh, LOC101060439 /// RAP1B / RFU, RFX7 / Fold change vs veh, RFX7 / RFU, GTPBP10 / Fold change vs veh, GTPBP10 / RFU, CNEP1R1 / Fold change vs veh, CNEP1R1 / RFU, BIVM-ERCC5 /// ERCC5 / Fold change vs veh, BIVM-ERCC5 /// ERCC5 / RFU, ILF3 / Fold change vs veh, ILF3 / RFU 11762660_at / Fold change /veh 11762660_at / RFU VCAN (11757783_s_at) / Fold change /veh VCAN (11757783_s_at) / RFU DDX43 (11728927_at) / Fold change /veh DDX43 (11728927_at) / RFU KRT8 (11758188_x_at) / Fold change /veh KRT8 (11758188_x_at) / RFU NKD1 (11759106_at) / Fold change /veh NKD1 (11759106_at) / RFU SRD5A1 (11742802_a_at) / Fold change /veh SRD5A1 (11742802_a_at) / RFU TPSAB1 /// TPSB2 (11721975_s_at) / Fold change /veh TPSAB1 /// TPSB2 (11721975_s_at) / RFU GSTM3 (11746129_a_at) / Fold change /veh GSTM3 (11746129_a_at) / RFU IL23R (11737362_x_at) / Fold change /veh IL23R (11737362_x_at) / RFU TMEM51 (11727254_a_at) / Fold change /veh TMEM51 (11727254_a_at) / RFU PIWIL2 (11732686_x_at) / Fold change /veh PIWIL2 (11732686_x_at) / RFU ORM1 (11744905_x_at) / Fold change /veh ORM1 (11744905_x_at) / RFU CCDC152 (11743942_at) / Fold change /veh CCDC152 (11743942_at) / RFU ECM1 (11717891_a_at) / Fold change /veh ECM1 (11717891_a_at) / RFU IL23R (11748794_a_at) / Fold change /veh IL23R (11748794_a_at) / RFU TNFAIP8L3 (11732012_x_at) / Fold change /veh TNFAIP8L3 (11732012_x_at) / RFU MBOAT4 (11741988_at) / Fold change /veh MBOAT4 (11741988_at) / RFU 11764193_at / Fold change /veh 11764193_at / RFU TMEM53 (11763286_at) / Fold change /veh TMEM53 (11763286_at) / RFU MAGEB2 (11727129_at) / Fold change /veh MAGEB2 (11727129_at) / RFU TMEM200A (11744735_a_at) / Fold change /veh TMEM200A (11744735_a_at) / RFU CCDC152 (11751479_a_at) / Fold change /veh CCDC152 (11751479_a_at) / RFU FAM211A (11726209_a_at) / Fold change /veh FAM211A (11726209_a_at) / RFU RGS16 (11746705_a_at) / Fold change /veh RGS16 (11746705_a_at) / RFU VCAN (11755009_s_at) / Fold change /veh VCAN (11755009_s_at) / RFU RHOB (11743442_s_at) / Fold change /veh RHOB (11743442_s_at) / RFU RGS16 (11720943_a_at) / Fold change /veh RGS16 (11720943_a_at) / RFU RGS16 (11720944_at) / Fold change /veh RGS16 (11720944_at) / RFU, VPS4B / Fold change vs veh, VPS4B / RFU, CREB1 / Fold change vs veh, CREB1 / RFU, DNAJC13 / Fold change vs veh, DNAJC13 / RFU, GNAQ / Fold change vs veh, GNAQ / RFU, CDK5R1 / Fold change vs veh, CDK5R1 / RFU, ZRANB3 / Fold change vs veh, ZRANB3 / RFU, CUL4A / Fold change vs veh, CUL4A / RFU, CCNY / Fold change vs veh, CCNY / RFU, UFL1 / Fold change vs veh, UFL1 / RFU, COG3 / Fold change vs veh, COG3 / RFU, DIAPH2 / Fold change vs veh, DIAPH2 / RFU, SKA2 / Fold change vs veh, SKA2 / RFU, AFF3 / Fold change vs veh, AFF3 / RFU, LMF1 / Fold change vs veh, LMF1 / RFU, IPO11 / Fold change vs veh, IPO11 / RFU, DFFB / Fold change vs veh, DFFB / RFU, FOXP1 / Fold change vs veh, FOXP1 / RFU, CARD8 / Fold change vs veh, CARD8 / RFU, STRN3 / Fold change vs veh, STRN3 / RFU, ADK / Fold change vs veh, ADK / RFU, RASSF2 / Fold change vs veh, RASSF2 / RFU, WIPF1 / Fold change vs veh, WIPF1 / RFU, LARP1B / Fold change vs veh, LARP1B / RFU, RASA1 / Fold change vs veh, RASA1 / RFU, RB1 / Fold change vs veh, RB1 / RFU, PPFIA1 / Fold change vs veh, PPFIA1 / RFU, MAT2A / Fold change vs veh, MAT2A / RFU, CCT5 / Fold change vs veh, CCT5 / RFU, WDR92 / Fold change vs veh, WDR92 / RFU, CUX1 / Fold change vs veh, CUX1 / RFU, TTC7A / Fold change vs veh, TTC7A / RFU, TMEM135 / Fold change vs veh, TMEM135 / RFU, DEPTOR / Fold change vs veh, DEPTOR / RFU, CPM / Fold change vs veh, CPM / RFU, DNAJB6 / Fold change vs veh, DNAJB6 / RFU, CACNA2D3 / Fold change vs veh, CACNA2D3 / RFU, DTX4 / Fold change vs veh, DTX4 / RFU, TFCP2 / Fold change vs veh, TFCP2 / RFU, GMCL1 /// GMCL1P1 / Fold change vs veh, GMCL1 /// GMCL1P1 / RFU, AEBP2 / Fold change vs veh, AEBP2 / RFU, SNHG1 /// SNORD22 /// SNORD25 /// SNORD26 /// SNORD27 /// SNORD28 /// SNORD29 /// SNORD31 / Fold change vs veh, SNHG1 /// SNORD22 /// SNORD25 /// SNORD26 /// SNORD27 /// SNORD28 /// SNORD29 /// SNORD31 / Fold change (Aza/veh), C12orf56 (ProbeSet 11735607_a_at) / Fold change (ACY-1035/veh), C12orf56 (ProbeSet 11735607_a_at) / Fold change (Aza/veh), FGFR1OP (ProbeSet 11751329_s_at) / Fold change (ACY-1035/veh), FGFR1OP (ProbeSet 11751329_s_at) / Fold change (Aza/veh), VPS36 (ProbeSet 11739960_a_at) / Fold change (ACY-1035/veh), VPS36 (ProbeSet 11739960_a_at) / RFU SYPL1 (11715823_x_at) / Fold change /veh SYPL1 (11715823_x_at) / RFU IGFBP7 (11715501_s_at) / Fold change /veh IGFBP7 (11715501_s_at) / RFU REEP3 (11722064_at) / Fold change /veh REEP3 (11722064_at) / RFU IGLL1 (11728026_x_at) / Fold change /veh IGLL1 (11728026_x_at): dose or concentration left out as unconfirmed
Conditions: MV-4-11 cells, 48 hours

For `Nc1ncn([C@@H]2O[C@H](CO)[C@@H](O)[C@H]2O)c(=O)n1` [azacitidine], the “Fold change /veh 11762660_at” value was 1.27.
